The target of this assay is T1, BbKst-kinase (serine/threonine protein kinase BbKst).
T1 construct: kinase domain (from 2233 to 3342 bp of cDNA), His-fused, expressed in E. coli BL21
Kind of assay: in vitro […] kinase assay with purified kinase domain. It counts as biochemical, Bambusa balcooa.

The text below walks through data of paper PMC3847131, “Functional characterization of a serine-threonine protein kinase from Bambusa balcooa that implicates in cellulose overproduction and superior quality fiber formation” (BMC Plant Biology, 2013).

On to `O=c1c(O)c(-c2ccc(O)c(O)c2)oc2cc(O)cc(O)c12` [quercetin], for which the IC50 was 7 nM.
